Twelve molecules from ChEMBL document CHEMBL1201862, “PubChem BioAssay data set” (2004) can be followed below.

Where “and” joins values, the source holds several entries; their conditions need not be identical. Identical values can stand only once.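 The compound was tested at five concentrations on cells cultured in 96-well plates, with a 48-hour exposure period. GI50 marks 50% less growth.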 Calls of active or inactive are those of the source. No stated cut-off is given here; in the data, active = GI50 up to about 1.1 µM and inactive = higher.

Some test systems named below: A498; A549; DU-145; HCC 2998; HCT-116; HL-60; HOP-62; IGROV-1; KM12; MDA-MB-231; MDA-MB-435; NCI/ADR-RES; OVCAR-4; OVCAR-5; SF-268; SF-295; SN12C; UO-31; MOLT-4; HOP-92.
What all share (experiment): growth of human tumour cells (NCI), 48 h

As to `Nc1nc(SCc2ccccn2)c2ncn(C3CCCC3)c2n1`, the GI50 with A498 is > 100 µM (inactive); in the assay on A549, > 100 µM (inactive); with DU-145 it was > 100 µM (inactive); in the assay with HCC 2998, > 100 µM (inactive); with HCT-116, > 100 µM (inactive); with HL-60, 97.3 µM (inactive). In addition, the GI50 with HOP-62, with IGROV-1, in the assay with KM12, with MDA-MB-231, in the assay with MDA-MB-435 and with NCI/ADR-RES was > 100 µM (inactive) in each case. In addition, the GI50 with OVCAR-4 is > 100 µM (inactive); with OVCAR-5, > 100 µM (inactive); in the assay on SF-268, 70.5 µM (inactive); with SF-295 it was > 100 µM (inactive); in the assay with SN12C it was > 100 µM (inactive); in the assay with UO-31, 15 µM (inactive).
With `Nc1nncc2[nH]nnc12`, the GI50 in the assay on A498 is > 100 µM (inactive); in the assay on A549, > 100 µM (inactive); in the assay on DU-145 it was > 100 µM (inactive); in the assay with HCT-116, > 100 µM (inactive); in the assay with HL-60 it was 12.8 µM (inactive); with HOP-62 it was > 100 µM (inactive). For the same molecule, the GI50 was > 100 µM (inactive) in the assay on IGROV-1; > 100 µM (inactive) in the assay on KM12; > 100 µM (inactive) with MDA-MB-231; > 100 µM (inactive) with MDA-MB-435; 17.4 µM (inactive) in the assay with MOLT-4; > 100 µM (inactive) with NCI/ADR-RES. Moreover, the GI50 with OVCAR-5, in the assay with SF-268, with SF-295, with SN12C and in the assay with UO-31 was > 100 µM (inactive) throughout.
Consider `Cc1ccccc1/N=N/c1c(O)ccc2ccccc12`, for which the GI50 in the assay on A549 is 69.3 µM (inactive); in the assay with DU-145, > 100 µM (inactive); in the assay with HCT-116, 69.5 µM (inactive); with HL-60, > 100 µM (inactive); with HOP-62 it was 48.1 µM (inactive); with HOP-92, > 100 µM (inactive). In addition, the GI50 in the assay on IGROV-1 is 59.2 µM (inactive); in the assay with KM12, 16.4 µM (inactive); in the assay on MDA-MB-231 it was > 100 µM (inactive); in the assay with MDA-MB-435 it was > 100 µM (inactive); in the assay on MOLT-4, > 100 µM (inactive); in the assay with NCI/ADR-RES, > 100 µM (inactive). For the same molecule, the GI50 is 70.5 µM (inactive) with OVCAR-4; > 100 µM (inactive) with OVCAR-5; 62.4 µM (inactive) with SF-268; 77.1 µM (inactive) with SF-295; > 100 µM (inactive) in the assay on SN12C; > 100 µM (inactive) in the assay with UO-31.
Turning to `CCCC1(CCC)c2cc(/C=N\O)ccc2-c2ccc(-c3ccc(C(C)(C)C)cc3)cc21`, the GI50 in the assay on A498 was > 10 µM (inactive); in the assay with A549 it was 53.7 µM (inactive); with DU-145, > 100 µM (inactive); with HCC 2998, 42.6 µM (inactive); in the assay on HCT-116, 22.6 µM (inactive); with HL-60 it was 20.7 µM (inactive). Moreover, the GI50 in the assay on HOP-62 was > 100 µM (inactive); in the assay with HOP-92 it was 64.9 µM (inactive); with IGROV-1, 61.9 µM (inactive); with KM12 it was 55.3 µM (inactive); in the assay with MDA-MB-231, 19.5 µM (inactive); in the assay with MOLT-4, 23.4 µM (inactive). For the same molecule, the GI50 is 53.8 µM (inactive) with NCI/ADR-RES; > 100 µM (inactive) in the assay with OVCAR-4; > 100 µM (inactive) in the assay with OVCAR-5; 56 µM (inactive) in the assay with SF-268; 33.2 µM (inactive) in the assay on SF-295; 23.1 µM (inactive) in the assay on SN12C. Further, the GI50 in the assay with UO-31 is > 100 µM (inactive).
For the molecule `COc1ccc2c(C)cc(=O)oc2c1OC`, the GI50 with A498, in the assay with A549, in the assay with DU-145, in the assay on HCT-116, in the assay on HOP-62 and with IGROV-1 was > 100 µM (inactive) in each case. The GI50 with KM12, in the assay with MDA-MB-231, in the assay on MDA-MB-435, in the assay with MOLT-4, in the assay with NCI/ADR-RES and with OVCAR-4 was > 100 µM (inactive) throughout. Besides, the GI50 in the assay on OVCAR-5, with SF-268, in the assay on SF-295, in the assay with SN12C and in the assay on UO-31 was > 100 µM (inactive) in each case.
`COC1=CC2=NCCc3n[nH]c(c32)C1=O`: the GI50 with A498 is 23.5 µM (inactive); in the assay on A549, 24.3 µM (inactive); with HCC 2998, 47.1 µM (inactive); in the assay with HCT-116, 13.7 µM (inactive); in the assay on HL-60, 0.0482 µM (active); in the assay on HOP-62 it was 31.7 µM (inactive). In addition, the GI50 with IGROV-1 was 19.1 µM (inactive); with KM12 it was 28.1 µM (inactive); with MDA-MB-231 it was 14.5 µM (inactive); in the assay with MDA-MB-435 it was 11.5 µM (inactive); in the assay on MOLT-4, 18.6 µM (inactive); with NCI/ADR-RES it was 29.1 µM (inactive). Moreover, the GI50 in the assay with OVCAR-5 was 18.5 µM (inactive); in the assay with SF-295, 28.1 µM (inactive); in the assay on SN12C, 13.7 µM (inactive); in the assay with UO-31 it was 24.7 µM (inactive).
Regarding `CCN(CC)CCN1CCN=C2c3cc(OC)ccc3Nc3c([N+](=O)[O-])ccc1c32`, the GI50 in the assay on A549 was 1.24 µM (inactive); in the assay on DU-145 it was 2.8 µM (inactive); with HCC 2998, 0.555 µM (active); in the assay on HL-60, 0.519 µM (active); in the assay with HOP-62, 0.56 µM (active); in the assay with HOP-92, 2.21 µM (inactive). In addition, the GI50 in the assay on IGROV-1 was 1.72 µM (inactive); with KM12, 1.15 µM (inactive); with MDA-MB-231, 0.671 µM (active); in the assay with MDA-MB-435 it was 1.28 µM (inactive); in the assay on MOLT-4 it was 0.288 µM (active); with OVCAR-4, 1.07 µM (active). The GI50 in the assay with SF-268 is 0.501 µM (active); in the assay with SF-295 it was 1.82 µM (inactive); with SN12C it was 0.667 µM (active).
With `CCOC1CCN(C(=O)c2ccccc2)O1` (centres undefined), the GI50 in the assay with A549, in the assay on DU-145, in the assay on HCC 2998, in the assay on HCT-116, in the assay on HL-60 and with HOP-62 was > 10 µM (inactive) in each case. The GI50 in the assay on IGROV-1, in the assay with MDA-MB-231, with MDA-MB-435, in the assay on MOLT-4, in the assay on NCI/ADR-RES and with OVCAR-4 was > 10 µM (inactive) in each case. Besides, the GI50 with OVCAR-5, with SF-268, in the assay with SF-295, in the assay on SN12C and in the assay with UO-31 was > 10 µM (inactive) throughout.
Take `NNC(=O)c1cc(=O)[nH][nH]1`: the GI50 in the assay on A549, with DU-145, with HCT-116, in the assay with HOP-92, in the assay on IGROV-1 and with KM12 was > 100 µM (inactive) throughout. Further, the GI50 with MDA-MB-231, with MDA-MB-435, in the assay with MOLT-4, in the assay on NCI/ADR-RES, with OVCAR-4 and in the assay on OVCAR-5 was > 100 µM (inactive) each time. Also, the GI50 in the assay with SF-268, in the assay with SF-295, in the assay on SN12C and in the assay with UO-31 was > 100 µM (inactive) throughout.
In the case of `COc1ccc(C(SC2C(O)C(CO)OC2n2ccc(=O)[nH]c2=O)(c2ccccc2)c2ccc(OC)cc2)cc1` (centres undefined), the GI50 in the assay on A549 is 16.4 µM (inactive); in the assay with DU-145 it was 18.4 µM (inactive); in the assay with HCC 2998, 14.8 µM (inactive); with HCT-116, 14.7 µM (inactive); with HL-60, 25.6 µM (inactive); in the assay with HOP-62 it was 17.9 µM (inactive). Further, the GI50 is 15.6 µM (inactive) in the assay on HOP-92; 17.7 µM (inactive) in the assay on IGROV-1; 15.8 µM (inactive) in the assay on KM12; 16.1 µM (inactive) with MDA-MB-231; 9.1 µM (inactive) in the assay on MDA-MB-435; 26.9 µM (inactive) in the assay on MOLT-4. In addition, the GI50 in the assay on NCI/ADR-RES is 18.9 µM (inactive); in the assay on OVCAR-4, 19.7 µM (inactive); in the assay with OVCAR-5 it was 18.4 µM (inactive); in the assay on SF-268, 17.9 µM (inactive); with SF-295 it was 7.57 µM (inactive); in the assay with SN12C, 14.4 µM (inactive). The GI50 in the assay with UO-31 is 16.6 µM (inactive).
Consider `CNC(=O)NS(=O)(=O)c1ccc(C)cc1.NS(=O)O`, for which the GI50 in the assay with A549, with DU-145, in the assay on HCT-116, in the assay on HL-60, in the assay with HOP-62 and in the assay with HOP-92 was > 100 µM (inactive) throughout. Also, the GI50 in the assay on IGROV-1, in the assay with KM12, in the assay on MDA-MB-231, in the assay on MOLT-4, with NCI/ADR-RES and in the assay with OVCAR-4 was > 100 µM (inactive) each time. In addition, the GI50 with OVCAR-5, with SF-268, in the assay on SF-295, with SN12C and with UO-31 was > 100 µM (inactive) each time.
With `COc1cc(-c2oc3c(OC)c(OC)cc(O)c3c(=O)c2OC)ccc1O` [TERNATIN], the GI50 in the assay on A549 was 14.9 µM (inactive); in the assay on DU-145 it was 7.43 µM (inactive); in the assay on HCT-116 it was 5.04 µM (inactive) and 8.69 µM (inactive); with HL-60 it was 1.24 µM (inactive); in the assay on IGROV-1 it was 4.89 µM (inactive) and 4.1 µM (inactive); in the assay on MDA-MB-231, 15.2 µM (inactive). In addition, the GI50 is 10.6 µM (inactive) with MDA-MB-435, 12.7 µM (inactive) in the assay with MOLT-4, 38.8 µM (inactive) with NCI/ADR-RES and 34.6 µM (inactive) in the assay with OVCAR-5.
